{"source": "patent US7341711B2", "about": "“Porphyrin compounds and their use in high-field MRI” (Guerbet, priority 2004, dated 2008)", "origin": "cited, not measured here", "note": "Several values for one entry are separate records, joined by “and”; a condition that tells them apart may be missing. Equal entries are not always repeated. Where two headings read alike, the source gives them in different places.", "data": [{"smiles": "O=S(=O)([O-])c1ccc(-c2c3nc(c(-c4ccc(S(=O)(=O)[O-])cc4)c4ccc([n-]4)c(-c4ccc(S(=O)(=O)[O-])cc4)c4ccc([n-]4)c(-c4ccc(S(=O)(=O)[O-])cc4)c4nc2C=C4)C=C3)cc1.[Mn+3]", "note": "[MnTPPS4]", "values": [{"measurement": "relaxivity", "setting": "at 1.5 T", "value": 17, "unit": "mmol⁻¹ s⁻¹"}, {"measurement": "relaxivity", "setting": "field not stated", "value": "~10", "unit": "mmol⁻¹ s⁻¹"}, {"measurement": "relaxivity", "setting": "in blood plasma at 0.25 T", "value": "10.7 mmol⁻¹ s⁻¹ and 12.2 mmol⁻¹ s⁻¹"}]}]}
